Source: ChEMBL document CHEMBL1201862, “PubChem BioAssay data set” (2004)
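Grown in 96-well plates, cells were treated for 48 hours with each compound at five concentrations. Insufficient inhibition: endpoint recorded as highest concentration tested. GI50 marks 50% less growth.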 Active and inactive are the calls of the source. Cut-off read from the data, not from the text of the source: active = GI50 up to about 1.1 µM and inactive = higher.

Columns and labels:
Test in all cases: DTP human tumour cell line panel, 48 h
[1] = test system: A498
[2] = test system: HCT-116
[3] = test system: HOP-92
[4] = test system: IGROV-1
[5] = test system: K562
[6] = test system: LOX IMVI
[7] = test system: MOLT-4
[8] = test system: Malme-3M
[9] = test system: NCI-H226
[10] = test system: NCI-H522
[11] = test system: NCI/ADR-RES
[12] = test system: OVCAR-8
[13] = test system: RPMI-8226
[14] = test system: SK-MEL-28
[15] = test system: SK-MEL-2
[16] = test system: SK-MEL-5
[17] = test system: SNB-19
[18] = test system: SW-620
[19] = test system: UACC-257
[20] = test system: RXF 393

Measured: GI50

O=C(NC(Cc1ccc(I)cc1)C(=O)O)c1ccc(Cl)cc1 (stereo not drawn)
inactive: [1] > 100 µM | [2] > 100 µM | [3] 67.8 µM | [4] > 100 µM | [5] > 100 µM | [6] > 100 µM | [7] > 74.3 µM | [8] 89.7 µM | [9] > 100 µM | [10] 74.3 µM | [11] > 100 µM | [12] > 100 µM | [13] 59.3 µM | [14] > 100 µM | [15] > 100 µM | [16] > 100 µM | [17] > 100 µM | [18] > 100 µM | [19] > 100 µM

C=CC1OC(CCCOC(=O)C(C)(C)C)O[C@@H]1CC (stereo partly drawn)
inactive: [1] > 100 µM | [3] > 100 µM | [4] > 100 µM | [7] > 100 µM | [9] > 100 µM | [10] > 100 µM | [11] > 100 µM | [12] > 100 µM | [13] > 100 µM | [14] > 100 µM | [15] > 100 µM | [16] > 100 µM | [17] > 100 µM | [18] > 100 µM | [19] > 100 µM

Cc1ccc(C)c(NC(=O)C(=O)C(C(=O)c2ccc3ccccc3c2)C2OC(=O)c3ccccc32)c1 (stereo not drawn)
inactive: [1] 16.8 µM | [2] 12.3 µM | [3] 26.1 µM | [4] 18.2 µM | [5] 25.7 µM | [6] 13.6 µM | [7] 5.25 µM | [9] 2.44 µM | [10] 10 µM | [12] 7.82 µM | [13] 22.2 µM | [20] 2.97 µM | [14] 12.4 µM | [15] 13.6 µM | [16] 17.2 µM | [17] 8 µM | [18] 11.2 µM | [19] 15.5 µM

OC1CCSc2ccccc21 (stereo not drawn)
inactive: [2] > 100 µM | [4] > 100 µM | [5] > 100 µM | [6] > 100 µM | [7] > 100 µM | [8] > 100 µM | [9] > 100 µM | [10] > 100 µM | [12] > 100 µM | [13] > 100 µM | [20] > 100 µM | [14] > 100 µM | [15] > 100 µM | [16] > 100 µM | [17] > 100 µM | [18] > 100 µM

CCOC(=O)c1nc2ccccc2nc1Nc1ccc(C(=O)OC)s1
inactive: [1] > 100 µM | [2] > 100 µM | [3] > 100 µM | [4] > 100 µM | [6] > 100 µM | [7] > 100 µM | [8] 18.5 µM | [10] 47.4 µM | [11] > 100 µM | [12] > 100 µM | [13] > 100 µM | [14] > 100 µM | [15] > 100 µM | [16] > 100 µM | [17] > 100 µM | [18] > 100 µM | [19] > 100 µM

CCOC(=O)[C@H]1Nc2ccc(Cl)cc2[C@H]2c3ccccc3O[C@H]21
inactive: [2] > 100 µM | [4] > 100 µM | [5] 56.5 µM | [6] > 100 µM | [7] > 100 µM | [9] > 100 µM | [10] > 100 µM | [12] > 100 µM | [13] 45.5 µM | [20] > 100 µM | [14] 35.2 µM | [15] > 100 µM | [16] 64.7 µM | [17] > 100 µM | [18] > 100 µM | [19] 36.1 µM

O=C(Nc1ccc(Cl)cc1)C(=O)C(C(=O)c1ccccc1-c1ccccc1)C1OC(=O)c2ccccc21 (stereo not drawn)
inactive: [1] 16.4 µM | [2] 18.2 µM | [3] 27 µM | [4] 29.1 µM | [5] 34.4 µM | [6] 14.6 µM | [7] 29.4 µM | [9] 6.34 µM | [10] 14.2 µM | [12] 15.5 µM | [13] 26.9 µM | [20] 11.6 µM | [14] 18.4 µM | [15] 20.8 µM | [16] 14.5 µM | [17] 16.6 µM | [18] 22.4 µM | [19] 21.9 µM

Cc1cccc(C(O)c2ccccn2)c1O (stereo not drawn)
inactive: [2] > 100 µM | [4] > 100 µM | [5] > 100 µM | [6] > 100 µM | [7] > 100 µM | [8] > 100 µM | [9] > 100 µM | [10] > 100 µM | [11] > 100 µM | [12] > 100 µM | [13] > 100 µM | [20] > 100 µM | [14] > 100 µM | [16] > 100 µM | [17] > 100 µM | [18] > 100 µM | [19] > 100 µM

CN1C[C@H]2[C@@H](C1=O)[C@H](c1ccc([N+](=O)[O-])cc1)ON2C
inactive: [2] > 100 µM | [3] > 100 µM | [4] > 100 µM | [5] > 100 µM | [6] > 100 µM | [7] > 100 µM | [9] > 100 µM | [10] > 100 µM | [11] > 100 µM | [12] > 100 µM | [13] > 100 µM | [14] > 100 µM | [15] > 100 µM | [16] > 100 µM | [17] > 100 µM | [18] > 100 µM | [19] > 100 µM

Cc1ccc(C2=C(C#N)C(N)OC3=C2COc2ccccc23)cc1 (stereo not drawn)
inactive: [1] 24.1 µM | [2] 31.9 µM | [3] 31.8 µM | [4] 57.8 µM | [5] 80.7 µM | [6] 88.3 µM | [7] 16.6 µM | [8] 22.8 µM | [9] > 100 µM | [11] 30.3 µM | [13] > 100 µM | [14] 31.6 µM | [15] 26.6 µM | [16] 63 µM | [17] 19 µM | [18] > 100 µM | [19] > 100 µM

CCOC(=O)c1ccc(Nc2nc3cc(C(F)(F)F)ccc3nc2C(=O)OCC)cc1
inactive: [1] 36.6 µM | [2] 34.2 µM | [3] 50 µM | [4] > 100 µM | [5] 31 µM | [6] 42.8 µM | [7] > 100 µM | [10] > 100 µM | [11] > 100 µM | [12] 51.6 µM | [13] > 100 µM | [20] > 100 µM | [14] > 100 µM | [16] 28.3 µM | [17] 22.6 µM | [18] > 100 µM | [19] > 100 µM

O=C(O)C1=C(CO)Oc2cc3c(cc2C1c1ccc2c(c1)OCO2)OCO3 (stereo not drawn)
inactive: [2] > 100 µM | [3] > 100 µM | [4] > 100 µM | [5] > 100 µM | [6] > 100 µM | [7] > 100 µM | [8] > 100 µM | [12] > 100 µM | [13] > 100 µM | [20] > 100 µM | [14] > 100 µM | [15] > 100 µM | [16] > 100 µM | [17] > 100 µM | [18] > 100 µM | [19] > 100 µM
